Test [1] relates to mammalian cells (HepG2 and THP-1). The test is described as follows: Cytotoxicity in mammalian cells, cell line not given. The note with it: read-out: IC50 in mammalian cells.
The test system of the next test is Mtb. The test is described as follows: MIC of 6-azasteroid alone, Mtb. It counts as cell-based, Mycobacterium tuberculosis. The note with it: (MIC99 reported as micromolar).
For the next test, the system named is THP-1 cells. The experiment in a line: Cytotoxicity assay (Alamar Blue), THP-1. The format is cell-based. As to conditions: Homo sapiens, THP-1, 72 h, read-out: Mammalian Cell IC50, THP1.
Another test deals with HepG2 cells. The experiment in a line: Cytotoxicity assay (Alamar Blue), HepG2. The format is cell-based, human. As to conditions: read-out: Mammalian Cell IC50, HepG2. (In general: Alamar Blue is a resazurin reagent that responds to reducing activity.)
The test system of test [2] is Mtb (CDC1551). The experiment in a line: BDQ potentiation MIC99 microbroth assay, Mtb. The note with it: 6-azasteroid fixed at 20 μM; relative to BDQ MIC99 without azasteroid. It counts as cell-based, Mycobacterium tuberculosis. (In general: In broth dilution the organism is exposed to a series of concentrations in liquid medium.)
Test [3] relates to Mm (BAA-535). Details: method as in PMID 31012313. The note with it: normoxic conditions; cited from earlier work.
The subject of test [4] is Mtb (CDC1551). The test is described as follows: ROS sensitivity (CellROX Green) with or without cumene hydroperoxide. The format is cell-based, Mycobacterium tuberculosis.
The test system of another test is Mtb and Mm. The test is described as follows: BDQ potentiation MIC99 assay, species not given. As to conditions: 6-azasteroid at 20 μM; species not stated. The format is cell-based.
The subject of test [5] is Mtb (CDC1551). Also noted: method as in PMID 31012313. The note with it: normoxic conditions; cited from earlier work.
Test [6] relates to Mm (BAA-535). The experiment in a line: BDQ potentiation MIC99 microbroth assay, Mm. As to conditions: 6-azasteroid fixed at 20 μM; relative to BDQ MIC99 without azasteroid. It counts as cell-based, Mycobacterium marinum.
A further test concerns Mtb CDC1551. The test is described as follows: Intracellular ATP levels under BDQ cotreatment. The note with it: 96 h.
A further test concerns Mm. The test is described as follows: MIC of 6-azasteroid alone, Mm. The format is cell-based, Mycobacterium marinum. As to conditions: (micromolar).
The target in test [7] is T1, recombinant Mtb 3β-Hsd (Rv1106c) (Mycobacterium tuberculosis, UniProt P9WQP7).
T1 construct: made in house
T1 sequence (P9WQP7 whole entry): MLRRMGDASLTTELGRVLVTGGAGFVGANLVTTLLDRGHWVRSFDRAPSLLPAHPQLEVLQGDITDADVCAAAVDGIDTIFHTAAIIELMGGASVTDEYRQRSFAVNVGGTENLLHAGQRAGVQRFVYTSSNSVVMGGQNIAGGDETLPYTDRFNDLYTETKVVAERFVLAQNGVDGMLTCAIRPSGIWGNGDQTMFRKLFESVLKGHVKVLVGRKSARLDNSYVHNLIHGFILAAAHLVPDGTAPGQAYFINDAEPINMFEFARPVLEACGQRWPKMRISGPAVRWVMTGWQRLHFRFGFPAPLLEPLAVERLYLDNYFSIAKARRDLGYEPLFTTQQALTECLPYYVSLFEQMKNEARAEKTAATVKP
The format is biochemical. As to conditions: 50 μM 6-azasteroid.

Where two headings read alike, the source gives them in different places.

A word on the IC50: it is the midpoint of a concentration-inhibition curve. As to `CCCN1CC2C3CCC(C(=O)Nc4cc(C(C)(C)C)ccc4C(C)(C)C)[C@@]3(C)CCC2[C@@]2(C)CCC(=O)C=C12` (some centres unmarked) [compound 2], the IC50 in test [1] is 25 µM; with THP-1 cells, 24 µM; in the test on HepG2 cells (Homo sapiens, HepG2, 72 h) it was 21 µM. The “Mtb MIC Alone” value in the test with Mtb turned out to be 37 µM. Further, the “Fold ∆ of BDQ MIC, Mtb” value with Mtb (CDC1551) [2] was determined as 8 fold. In addition, in the test with Mm (BAA-535) [3], the “potentiation of the activity of isoniazid and BDQ, Mm” value is 8 fold. In the test with Mtb (CDC1551) [4] (20 μM pretreatment 6 h, then 5 mM CHP 30 min, versus not pretreated), the “intracellular oxidants after exogenous CHP, 6-azasteroid pretreatment” value is on record as “greater accumulation of intracellular oxidants”. The “effect on intracellular ROS levels, 6-azasteroid alone” value in the test with Mtb (CDC1551) [4] (20 μM, 6 h, no peroxide) is on record as “negligible effect”. Moreover, the “reduction in BDQ MIC99” value with Mtb and Mm is given as “greater than 8 fold”. For the same compound, the “potentiation of the activity of isoniazid and BDQ, Mtb” value in the test on Mtb (CDC1551) [5] is recorded as 8 fold. For the same compound, in the test on Mm (BAA-535) [6], the “Fold ∆ of BDQ MIC, Mm” value is 9 fold. Also, the “cellular ATP concentration in combination with BDQ, relative to BDQ treatment” value with Mtb CDC1551 (6-azasteroid 5 and 20 μM plus BDQ) is reported as “less than 50%”. For the same compound, the “ATP production, 6-azasteroid alone” value in the test on Mtb CDC1551 (20 or 5 μM, no BDQ) is listed as “not greatly affected”.
On to `C[C@]12CCC3C(CN(CCC(F)(F)F)C4=CC(=O)CC[C@@]43C)C1CCC2C(=O)Nc1cc(C(F)(F)F)ccc1C(F)(F)F` (some centres unmarked) [compound 9], for which the “MIC Alone (Mm)” value with Mm was more than 20 µM. For the same compound, the IC50 in the test on HepG2 cells (72 h) was more than 100 µM. Besides, the “Fold ∆ of BDQ MIC, Mm” value in the test on Mm (BAA-535) [6] turned out to be 4 fold.
`CCCN1CC2C3CCC(C(=O)NC(c4ccc(F)cc4)c4ccc(C(F)(F)F)cc4)[C@@]3(C)CCC2[C@@]2(C)CCC(=O)C=C12` (some centres unmarked) [compound 16]: in the test on Mtb, the “Mtb MIC Alone” value is more than 20 µM. Further, the “inhibition of 3β-Hsd activity” value in test [7] was “greater than 50%”. Further, the “Fold ∆ of BDQ MIC, Mtb” value in the test with Mtb (CDC1551) [2] is recorded as 64 fold.
For the compound `C[C@]12CCC3C(CN(CCCF)C4CC(=O)CC[C@]34C)C1CCC2C(=O)NC(c1ccc(OC(F)(F)F)cc1)c1ccc(OC(F)(F)F)cc1` (some centres unmarked) [compound 41], the “MIC Alone (Mm)” value in the test with Mm was more than 20 µM. The IC50 in the test with HepG2 cells (72 h) was more than 100 µM. The “Fold ∆ of BDQ MIC, Mm” value in the test with Mm (BAA-535) [6] was determined as 5 fold.
For `C[C@]12CCC3C(CN(CCC(F)(F)F)C4CC(=O)CC[C@]34C)C1CCC2C(=O)NC(c1ccc(OC(F)(F)F)cc1)c1ccc(OC(F)(F)F)cc1` (some centres unmarked) [compound 42], in that order: more than 20 µM, more than 100 µM and 1 fold.
Turning to `C[C@]12CCC3C(CNC4=CC(=O)CC[C@@]43C)C1CCC2C(=O)Nc1ccc(C(=O)c2ccccc2)cc1` (some centres unmarked) [compound 43], the “MIC Alone (Mm)” value with Mm was more than 20 µM. The IC50 with HepG2 cells (72 h) was more than 100 µM. In the test with Mtb (CDC1551) [2], the “Fold ∆ of BDQ MIC, Mtb” value is 8 fold. In addition, in the test on Mm (BAA-535) [6], the “Fold ∆ of BDQ MIC, Mm” value came to 2 fold.

Source of the values: article PMC10580313, “A Chemoproteomic Approach to Elucidate the Mechanism of Action of 6-Azasteroids with Unique Activity in Mycobacteria” (ACS Infectious Diseases, 2023).
